Common to all, as to assay type: cell-based, mouse
The test system of series [1] is Raw264.7 cells. Description: Cell viability (CCK-8) of RAW264.7 cells. The settings on record: IL-4/IL-13 plus compound 10 μM, 12 h. On the procedure: Cells were seeded in 96-well tissue culture plates. On the next day, cells were exposed to various concentrations of compounds and further cultured for the indicated period. Finally, cell proliferation was determined by using the Cell Counting Kit (CCK-8) (Dojindo, Kumamoto, Japan) assay.
Figure S2. Effects of natural pseudolaric acids 1-4, 6 and their O-pyranosides 5, 7 as well as the derivatives 8-18 o f 1 on Raw264.7 cell viability. Raw264.7 cells were treated with IL-4/IL-13 alone or combined with indicated compounds (10 μM) for 12 h. After incubation, the cell viability was determined using a cell counting kit (CCK-8, Dojindo, Japan) assay.
(1 picture or pasted object on this page, not shown here)

Series [2] concerns ARG1 protein expression in BMDMs. As to the kind of experiment: Western blot of ARG1 protein in macrophages. The following applies: CSF-1-differentiated BMDMs, IL-4 and IL-13, 48 h, different concentrations. On the procedure: We also extended the test to primary murine macrophages derived from bone marrow (BMDMs), which were cultured in vitro with recombinant mouse M-CSF for 6 days. The BMDMs were then stimulated with IL-4/IL-13, leading to their transformation into M2-like pro-tumoral macrophages. This transformation was characterized by an increase in both ARG1 and CD206 expression and a decrease in both NOS2 and MHC II expression. […] Subsequently, we assessed the capacity of compound 12 to inhibit the M2-like polarization of macrophages using CSF-1-differentiated mouse BMDMs. These cells were treated with IL-4 and IL-13 for 48 h, and the expression levels of CD206, an M2-type marker, and CD86, an M1-type marker, were analyzed via flow cytometry.
Total cellular protein was extracted using a 1 × SDS lysis buffer and denatured at 100 °C for 15 min. […]
Figure 2 Compound 12 inhibits the M2-like polarized phenotype of macrophages. […] The expression levels of the markers CD206 and CD86 on induced macrophages were determined by flow cytometry, and the mean fluorescence intensity (MFI) was analyzed with FlowJo (C), or the cells were lysed and immunoblotted to detect the indicated proteins (D). […] Data are represented as means ± SD. ^### p < 0.001 vs. non-stimulated control group, * p < 0.05, ** p < 0.01, *** p < 0.001 vs. stimulated control group. p-values were determined using one-way ANOVA.
A general note: In western blotting, separated proteins are transferred to a membrane and probed.

The subject of series [3] is CD8+ T cell proliferation and activation suppressed by M2-like BMDMs. As to the kind of experiment: CD8+ T cell suppression assay (BMDM / spleen cell co-culture). The following applies: BMDMs pretreated 48 h, co-cultured 48 h with anti-CD3/CD28-stimulated spleen cells. On the procedure: Pro-tumoral M2-like TAMs are well-known to directly suppress CD8^+ T cell proliferation and activation. When they were co-cultured with autologous spleen cells, as expected, the IL-4/IL-13-induced BMDMs suppressed the proliferation and activation of CD8^+ T cells.
Spleen cells were isolated from C57BL/6 mice, followed by red blood cell (RBC) lysis. BMDMs were induced into M2-like macrophages and treated with different concentrations of compound 1 for 48 h. Then, 2 × 10^5 spleen cells/well were stimulated with αCD3/αCD28 and co-cultured with 2 × 10^4 pro-treated BMDMs in 96-well plates in LCM (RPMI 1640 with […] 2-mercaptoethanol and 10% fetal bovine serum) at 37 °C. After 48 h, the spleen cells were treated with the eBioscience™ Cell Stimulation Cocktail (plus protein transport inhibitors) for 4 h, and cell activation was then determined by the proportion of IFNγ^+ CD8^+ T cells and GRZB^+ CD8^+ T cells in CD8^+ T cells measured using flow cytometry. Cell proliferation was determined by the proportion of Ki67^+ CD8^+ T cells in CD8^+ T cells using flow cytometry.
Figure 3 Compound 12 reverses macrophage-mediated CD8^+ T cell suppression. […] The ratios of Ki67^+ CD8^+ T cells (A), IFNγ^+ CD8^+ T cells, and granzyme B^+ CD8^+ T cells (B) in total CD8^+ T cells were assessed using flow cytometry. […]

Consider `COC(=O)C1=CC[C@@]23CC[C@@H]([C@@](C)(/C=C/C=C(\C)C(=O)NNCCO)OC2=O)[C@@]3(OC(C)=O)CC1` [compound 12, Methyl(3R,4S,4aS,9aR)-4a-acetoxy-3-((1E,3E)-5-(2-(2-hydroxyethyl)hydrazineyl)-4-methyl-5-oxopenta-1,3-dien-1-yl)-3-methyl-1-oxo-3,4,4a,5,6,9-hexahydro-1H-4,9a-ethanocyclohepta[c]pyran-7-carboxylate], for which the cell viability entry in series [1] is reported as “no significant diminution in cell viability”. In addition, the “ARG1 protein expression (Western blot)” value in series [2] was “potent inhibitory activity at the protein level”. The “inhibitory effects of IL-4/IL-13-induced BMDMs on CD8+ T cell proliferation and activation (Ki67+, IFNγ+, GRZB+ CD8+ T cells)” value in series [3] is reported as “dose-dependently reversed”.

The values above are taken from paper PMC12114375, “Discovery of Hydrazineyl Amide Derivative of Pseudolaric Acid B for Reprogramming Tumor-Associated Macrophages Against Tumor Growth” (Molecules, 2025).
